Read-outs that look alike come from different tables or passages of the source. No end group written: not given here.
Key:
Assay in all cases: biochemical
Type in all cases: binding
[1] = target: HLA-DR DRB1*0101 (DR1) (Homo sapiens, UniProt P01903+P01911, A100R/D57E/F55L/F60I/F76Y/I96L/L162R/M171V/P40L/Q125E/R42F/V115G/Y59C)
[2] = target: HLA-DR DRB1*0701 (DR7) (Homo sapiens, UniProt P01903+P01911, A100R/A102G/A103Q/D57E/D86V/E43K/F76Y/K127E/L162R/M171V/P40G/Q125H/Q99D/R33Q/R42Y/R54Q/S133A/S66F/T210M/V115G/Y107V/Y59L/Y89S)
[3] = target: HLA-DR DRB1*0301 (DR3) (Homo sapiens, UniProt P01903+P01911, A100K/A102G/A103R/A169T/F55Y/I96L/K41T/L162R/M171V/P40S/Q125H/Q178H/Q39Y/R42S/S66N/T106N/T262R/W38E/Y61H)
[4] = target: HLA-DR DRB1*0401 (DR4) (Homo sapiens, UniProt P01903+P01911, A100K/A169T/F76Y/I96L/K127E/L162R/M171V/N62H/P40V/Q125Y/R42H/S133A/S149N/S66Y/V115G/V209L/W38E)
[5] = target: HLA-DR DRB1*0901 (DR9) (Homo sapiens, UniProt P01903+P01911, A100R/A103E/D57H/D86V/F55Y/F60I/F76Y/I96F/K127E/L162R/M171V/P40D/Q125H/Q99R/R33Q/R42F/S133A/S66N/T210M/V115G/W38K/Y107V/Y59G/Y89S)
[6] = target: HLA-DR DRB1*0802 (DR8) (Homo sapiens, UniProt P01903+P01911, A100R/A103L/A169T/F76Y/H45Y/I96F/K41T/L162R/M171V/P40S/Q125H/Q178H/Q39Y/Q99D/R218S/R42G/S66Y/V115G/W38E)
[7] = target: HLA-DR DRB4*0101 (DR53) (Homo sapiens, UniProt P01903+P13762, G164S); settings: DRB4 *0101
[8] = target: HLA-DR DRB1*1101 (DR11) (Homo sapiens, UniProt P01903+P01911, A100R/A169T/A87E/I96F/K41T/L162R/M171V/P40S/Q125H/Q178H/Q39Y/Q99D/R42S/S66Y/T262R/V115G/W38E); settings: DRB1 *1101
[9] = target: HLA-DR DRB1*1302 (DR13) (Homo sapiens, UniProt P01903+P01911, A100E/A169T/K41T/L162R/M171V/P40S/Q125H/Q178H/Q39Y/Q99D/R42S/S66N/T262R/V115G/W38E/Y61H); settings: DRBI *1302
[10] = target: HLA-DR DRB5*0101 (DR51) (Homo sapiens, UniProt P01903+Q30154); settings: DRB5 *0101
[11] = target: HLA-DR DRB1*1501 (DR15) (Homo sapiens, UniProt P01903+P01911); settings: DRBI *1501

Sequence of HLA-DR DRB1*1101 (DR11) (P01903 26-254 limits assumed, other chains not shown): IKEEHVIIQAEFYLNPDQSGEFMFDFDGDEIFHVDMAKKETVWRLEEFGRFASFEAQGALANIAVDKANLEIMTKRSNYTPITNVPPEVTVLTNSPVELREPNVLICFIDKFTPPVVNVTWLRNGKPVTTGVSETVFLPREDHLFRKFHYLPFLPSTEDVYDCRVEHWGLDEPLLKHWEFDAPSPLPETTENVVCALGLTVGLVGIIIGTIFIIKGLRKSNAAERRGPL
Sequence of HLA-DR DRB1*1302 (DR13) (P01903 26-254 limits assumed, other chains not shown): as above
Sequence of HLA-DR DRB1*0301 (DR3) (P01903 26-254 limits assumed, other chains not shown): as above

Row | Molecule | IC50 ([1]; read-out: DRB1 *0101) [nM] | IC50 ([4]; read-out: DRB1 *0401) [nM] | IC50 ([5]; read-out: DRB1 *0901) [nM] | IC50 ([1]; DRB1 *0101) [nM] | IC50 [10] [nM] | IC50 ([2]; DRB1 *0701) [nM] | IC50 ([4]; DRB1 *0401) [nM] | other results
1 | FPTIPLSRLFDNAM | 6920 | 9460 | 15000 |  |  |  |  | IC50 ([2]; read-out: DRB1 *0701): 5530 nM; IC50 ([3]; read-out: DRB1 *0301): 46700 nM
2 | QLQQFQKEDAAVTLY | 85 |  | 55400 |  |  |  |  | IC50 ([2]; read-out: DRB1 *0701): 500 nM
3 | YGIIVPVLTSLFNKV | 6 | 2 |  |  |  |  |  | IC50 ([2]; read-out: DRB1 *0701): 60 nM; IC50 ([6]; read-out: DRB1 *0802): 793 nM
4 | QAISPRTLNSPAIF | 1960 | 6210 | 286000 |  |  |  |  | IC50 ([2]; read-out: DRB1 *0701): 39700 nM; IC50 ([3]; read-out: DRB1 *0301): 298000 nM
5 | TLRLCVQSTHVDIRT |  |  |  | 1520 | > 22900 | 3260 | 12000 | IC50 [7]: 243 nM; IC50 [8]: 17600 nM; IC50 [9]: 932 nM; IC50 ([5]; DRB1 *0901): 6370 nM
6 | GYKVLVLNPSV | 16 | 27 | 8790 |  |  |  |  | IC50 ([3]; read-out: DRB1 *0301): 72400 nM
7 | LQQMLLGTLQVVCPG |  |  |  | 168 | 29200 | 929 | 1500 | IC50 [7]: 1010 nM; IC50 [8]: > 31600 nM; IC50 [9]: 395 nM; IC50 ([5]; DRB1 *0901): 1690 nM
8 | SVTWIGAAPLILSPI | 4.1 | 3150 | 30 |  |  |  |  | IC50 ([2]; read-out: DRB1 *0701): 83 nM; IC50 ([3]; read-out: DRB1 *0301): > 81800 nM
9 | VRTLQQLLMQTCTIV | 36 | 322 | 496 |  |  |  |  | IC50 ([2]; read-out: DRB1 *0701): 1820 nM
10 | LCNFKKNIIALLIIP | 9.7 | 312 |  |  |  |  |  | IC50 ([6]; read-out: DRB1 *0802): 21300 nM
11 | KKCLNEILIRCHCQ | 9360 |  | 4000 |  |  |  |  | 
12 | RTVYRDNNPYGVCIM | 524 | 20 | 24100 |  |  |  |  | 
13 | NYELSKKAVIFTPIY |  |  |  | 713 |  | 5500 | 536 | IC50 [6]: 141 nM
14 | VLDLYPEPTDLYCYE |  |  |  | 11200 | > 15300 | > 72300 | 203 | IC50 [7]: 18 nM; IC50 [8]: > 15200 nM; IC50 [9]: > 12000 nM; IC50 [11]: 21600 nM; IC50 [3]: 121 nM; IC50 ([5]; DRB1 *0901): > 32200 nM
15 | CC(C)C[C@H](NC(=O)[C@H](CCC(N)=O)NC(=O)[C@H](CCC(N)=O)NC(=O)[C@@H](N)Cc1ccccc1)C(=O)N[C@@H](Cc1ccccc1)C(=O)N[C@@H](CC(C)C)C(=O)N[C@@H](CC(N)=O)C(=O)N[C@H](C(=O)N[C@@H](CC(C)C)C(=O)N[C@@H](CO)C(=O)N[C@@H](Cc1ccccc1)C(=O)N[C@H](C(=O)N[C@@H](CS)C(=O)N1CCC[C@H]1C(=O)N[C@@H](Cc1c[nH]c2ccccc12)C(=O)O)C(C)C)[C@@H](C)O |  |  |  |  |  |  |  | IC50 [9]: 9.3 nM; IC50 [11]: 24800 nM; IC50 ([5]; DRB1 *0901): 2060 nM
16 | YILLKKILSSRFNQM |  |  |  | 220 | 83 | 8.3 | 183 | IC50 [7]: 340 nM; IC50 [11]: 26 nM; IC50 [6]: 18 nM
17 | MIMIKFMGVIYIMII |  |  |  | 2900 |  | 68000 | 312 | IC50 [6]: 66100 nM
18 | MNALRRLPVICSFLV |  |  |  | 2.1 | 2560 |  | 13 | IC50 [7]: 5.7 nM; IC50 [11]: 36 nM; IC50 [6]: 265 nM
19 | KCLVISQVSNSDSYK |  |  |  | 628 | > 42600 | 46400 | 16 | IC50 [7]: 81 nM; IC50 [9]: 236 nM; IC50 [6]: 17900 nM
20 | KEYVLDLYPEPTDLY |  |  |  | 5950 | > 55100 | > 72300 | 131 | IC50 [8]: > 59200 nM; IC50 [9]: > 14800 nM; IC50 [11]: 3170 nM; IC50 ([5]; DRB1 *0901): > 49900 nM
21 | LEDLLMGTLGIVCP |  |  | 1990 |  |  |  |  | 
